Results published in PMC9299220, “Inhibition of JMJD6 by 2‐Oxoglutarate Mimics” (Chemmedchem, 2021).
Entries after “also recorded” stand apart in the source; their conditions may differ. Like-named read-outs stand apart in the source and are kept apart here.

Legend:
[1] = target: T1, JMJD6Δ363‐403.Zn(II).2OG complex (Homo sapiens, UniProt Q6NYC1); experiment: Ligand-observed CPMG-edited 1H NMR 2OG displacement assay from JMJD6Δ363‐403.Zn(II).2OG complex; format: binding; details: for Kd: 1H NMR, 60 µM EDTA-treated JMJD6, 200 µM Zn(II), 20 µM 2OG, 50 mM Tris-D11 pH 7.0, 10% D2O, mean ± SD (n=3), read-out: KD app (apparent binding constant) (converted); for extent of 2OG displacement from JMJD6Δ363‐403.Zn(II).2OG complex (in words): initial screen, fixed inhibitor concentration (400 µM ligand), Figure S6
T1 construct: made in house
Source text: We investigated whether the inhibitors compete for binding to JMJD6^Δ363‐403, using ^1H NMR to investigate the extent to which they displace 2OG from the JMJD6^Δ363‐403.Zn(II).2OG complex, initially with a fixed inhibitor concentration (Figure S6).[21, 22]
Figure S6: 2OG displacement ligand-binding assays with JMJD6 using CPMG-edited 1H NMR. Bar charts show the extent of 2OG displacement for: (A) TCA cycle intermediates, (B) 2OG mimetics, (C) PHD inhibitors, (D) tricarbonyl type compounds, (E) KDM inhibitors. Conditions: 60 µM EDTA-treated JMJD6∆363-403, 200 µM Zn(II), 10 µM 2OG, and 400 µM of the ligand, all in 50 mM Tris-D11, pH 7.0 in 10% D2O. Values represent the mean (n = 3) ± standard deviation (SD). Eq DMSO: DMSO control without inhibitor.
Figure S7: KDapp determination for TCA cycle intermediates / related compounds binding to JMJD6. Plots used for the determination of KDapp values of (A) fumarate and (B) […]
succinate. […] Conditions: 60 µM
EDTA-treated JMJD6, 200 µM Zn(II), 20 µM 2OG, 0-400 µM ligand, all in 50 mM Tris-D11 pH 7.0 in 10% D2O. Values represent the mean ± SD (n = 3). Compound structures are […]
Figure S8: KDapp determination for pyridine derivative binding to JMJD6. Plots used for determination of KDapp values (A) 2,4-PDCA and (B) 2,4-BPDCA.
Conditions: 60 µM EDTA-treated
D2O. Values represent the mean ± SD (n = 3).
Figure S9: KDapp determination for PHD inhibitor binding to JMJD6. Plots used for the determination of KDapp value (A) AKB-6899 and (B) Vadadustat.
Conditions: 60 µM EDTA-treated JMJD6,
Values represent the mean ± SD (n = 3).
Conditions for NMR assays
NMR was used to measure 2OG displacement from JMJD6 caused by inhibitors according to the method of Leung et al. The Carr-Purcell-Meiboom-Gill (CPMG) pulse sequence coupled with periodic refocusing of J evolution by coherence transfer (PROJECT) method was applied for spectral editing was used to edit out protein signals. In the initial screen […]
2OG and 400 µM inhibitor; the 1H NMR-spectra of 2OG were then analysed. To determine the apparent binding constant (KDapp), 20 µM of 2OG was titrated against increasing concentrations of JMJD6Δ363-403 in the presence of Zn(II) [JMJD6∆363-403.Zn(II)]. Thus, JMJD6∆363-403.Zn(II) was added until the methylene signals of 2OG were no longer observed, indicating complete 2OG binding to JMJD6. The extent of 2OG (%) bound to JMJD6Δ363-403 was calculated and the values were plotted against the concentration of JMJD6Δ363-403 using OriginTM. The KDapp of 2OG was calculated as reported.[11] To determine the KDapp for the inhibitor, the recovery of 2OG-signals was monitored in the presence of varied concentrations of inhibitor (0-800 µM).
% 2OG Displacement = x 100 […]
where, I2OG is the integral of the 2OG 1H signal in the presence of both inhibitor and JMJD6∆363-403.Zn(II)], I2OG(0) is the integral of 2OG in the presence of JMJD6∆363-403.Zn(II)] without inhibitor, I2OG(blank) is the integral of 2OG in the absence of both JMJD6∆363-403.Zn(II)] and inhibitor, ∆obs is the change in the integral of 2OG resulting from titration, ∆max represents the maximum change of the monitored NMR parameter (2OG integral), [L]0 is the titrated ligand concentration, and [P]0 is the JMJD6∆363-403concentration. 5-10% error was typically allowed in the curve fitting process.

[2] = target: T2, JMJD6Δ363‐403 (Homo sapiens, UniProt Q6NYC1); experiment: MALDI-TOF MS assay of JMJD6-catalysed lysine hydroxylation of LUC7L2 267-278 peptide; format: biochemical; details: for IC50: n=3, 10 μM JMJD6Δ363‐403, 100 μM LUC7L2 267‐278, 100 μM Fe(II), 400 μM L-sodium ascorbate, 20 μM 2OG, inhibitor 0–10 mM; for potency of JMJD6 inhibition (in words): MS assay
T2 construct: made in house
Source text: Initially, we used the MS assay to screen a range of potential JMJD6 inhibitors, based on scaffolds identified as inhibitors of other 2OG oxygenases, grouped into: (i) TCA cycle and related acidic compounds; (ii) 2OG mimics / broad spectrum 2OG oxygenase inhibitors; (iii) PHD inhibitors in clinical use / investigation; (iv) tricarbonyl type compounds, which are known iron oxygenase inhibitors; (v) reported inhibitors of the JmjC KDMs.[23]
Figure S1. Initial inhibition assays. Bar charts showing extent of JMJD6 inhibition by 0.1, 1, and 10 mM compound: (A) TCA cycle intermediates/related compounds, (B) 2OG analogues, (C) PHD inhibitors, (D) Tricarbonyl type compounds, (E) JmjC KDM inhibitors.
Values represent the mean ± SD (n = 3). Conditions: 10 µM JMJD6Δ363-403 (prepared as […]
reported) and 100 µM LUC7L2267-278 ([…], with a C-terminal amide) at 37 °C in 50 mM HEPES pH 7.5 buffer with 100 µM (NH4)2Fe(SO4)2.6H2O (Sigma-Aldrich), […]
varied inhibitor concentrations (0-10 mM). Reactions were quenched and products analysed by MALDI-TOF MS following a reported procedure.[11]
(1 picture or pasted object on this page, not shown here)

SMILES: O=C(O)c1ccnc(-c2cc(C(=O)O)ccn2)c1 [2,4 BPDCA, 2,2’‐bipyridine‐4,4’‐dicarboxylate, reference compound]
- Kd [1]: 7 µM
- extent of 2OG displacement from JMJD6Δ363‐403.Zn(II).2OG complex (in words) [1]: most efficiently displaced 2OG
- IC50 ([2]; mean±SD, read-out: IC50): 6 ± 1.6 µM

SMILES: O=C(O)c1ccnc(C(=O)O)c1 [2,4 PDCA, pyridine‐2,4‐dicarboxylate, reference compound]
- Kd [1]: 6 µM
- extent of 2OG displacement from JMJD6Δ363‐403.Zn(II).2OG complex (in words) [1]: most efficiently displaced 2OG
- IC50 ([2]; mean±SD, read-out: IC50): 13 ± 1.3 µM

SMILES: O=C(O)CNC(=O)c1ncc(-c2cccc(F)c2)cc1O [AKB‐6899]
- Kd [1]: 3 µM
- extent of 2OG displacement from JMJD6Δ363‐403.Zn(II).2OG complex (in words) [1]: most efficiently displaced 2OG
- IC50 ([2]; mean±SD, read-out: IC50): 9 ± 1.5 µM

SMILES: O=C(O)CC(O)(CC(=O)O)C(=O)O [Citrate]
- IC50 ([2]; mean±SD, read-out: IC50): 987 ± 1.3 µM

SMILES: CN(C)NC(=O)CCC(=O)O [Daminozide, reference compound]
- IC50 ([2]; IC50, mean±SD): 94 ± 1.5 µM

SMILES: O=C(O)CC[C@@H](O)C(=O)O [D‐2HG, 2‐hydroxyglutarate]
- IC50 ([2]; mean±SD, read-out: IC50): 622 ± 1.4 µM

SMILES: Cc1nc(C(=O)NCC(=O)O)c(O)c2ccc(Oc3ccccc3)cc12 [FG‐4592, reference compound]
- IC50 ([2]; mean±SD, read-out: IC50): 23 ± 1.5 µM

SMILES: O=C(O)/C=C/C(=O)O [Fumarate]
- Kd [1]: 109 µM
- extent of 2OG displacement from JMJD6Δ363‐403.Zn(II).2OG complex (in words) [1]: most efficiently displaced 2OG
- potency of JMJD6 inhibition (in words) [2]: most potent of these compounds
- IC50 ([2]; mean±SD, read-out: IC50): 165 ± 1.4 µM

SMILES: O=C(O)CNC(=O)c1c(O)n(C2CCCCC2)c(=O)n(C2CCCCC2)c1=O [GSK1278863, reference compound]
- IC50 ([2]; IC50, mean±SD): 10 ± 1.2 µM

SMILES: O=C(O)c1ccc(O)c2ncccc12 [IOX1, 5‐carboxy‐8‐hydroxyquinoline, reference compound]
- IC50 ([2]; mean±SD, read-out: IC50): 10 ± 1.5 µM

SMILES: O=C(O)CC[C@H](O)C(=O)O [L‐2HG, 2‐hydroxyglutarate]
- IC50 ([2]; mean±SD, read-out: IC50): 871 ± 1.5 µM

SMILES: O=C(O)CC(O)C(=O)O (centres unmarked) [Malate]
- IC50 ([2]; mean±SD, read-out: IC50): 5103 ± 2 µM

SMILES: O=c1c(-n2ccnn2)c[nH]n1-c1cc(N2CCOCC2)ncn1 [Molidustat, reference compound]
- IC50 ([2]; mean±SD, read-out: IC50): 74 ± 1.6 µM

SMILES: O=C(O)CNC(=O)C(=O)O [NOG, N‐oxalylglycine, reference compound]
- extent of 2OG displacement from JMJD6Δ363‐403.Zn(II).2OG complex (in words) [1]: only weakly displaced 2OG
- potency of JMJD6 inhibition (in words) [2]: poor inhibitor; also recorded: not a potent JMJD6 inhibitor
- IC50 ([2]; mean±SD, read-out: IC50): 296 ± 1.9 µM

SMILES: O=C(O)CC(=O)C(=O)O [Oxaloacetate]
- IC50 ([2]; mean±SD, read-out: IC50): 204 ± 2 µM

SMILES: CC(=O)C(=O)O [Pyruvate]
- IC50 ([2]; mean±SD, read-out: IC50): 2377 ± 1.7 µM

SMILES: O=C(O)CCC(=O)O [Succinate]
- Kd [1]: 159 µM
- extent of 2OG displacement from JMJD6Δ363‐403.Zn(II).2OG complex (in words) [1]: most efficiently displaced 2OG
- IC50 ([2]; mean±SD, read-out: IC50): 261 ± 2.3 µM

SMILES: O=C(O)CNC(=O)c1ncc(-c2cccc(Cl)c2)cc1O [Vadadustat]
- Kd [1]: 14 µM
- extent of 2OG displacement from JMJD6Δ363‐403.Zn(II).2OG complex (in words) [1]: most efficiently displaced 2OG
- IC50 ([2]; mean±SD, read-out: IC50): 7 ± 1.6 µM

SMILES: O=C(O)CNC(=O)CNC(=O)C(=O)O [compound 1]
- IC50 ([2]; mean±SD, read-out: IC50): 189 ± 1.5 µM

SMILES: O=C(O)c1ccnc2c(O)cccc12 [compound 2]
- IC50 ([2]; mean±SD, read-out: IC50): 5 ± 1.3 µM

SMILES: O=C(O)CCC(=O)NO [compound 3]
- IC50 ([2]; mean±SD, read-out: IC50): 25 ± 2 µM

SMILES: CCOC(=O)CNC(=O)c1c(O)n(C2CCCCC2)c(=O)n(C2CCCCC2)c1=O [compound 4]
- IC50 ([2]; IC50, mean±SD): 175 ± 1.5 µM

SMILES: O=C(O)CNC(=O)c1c(O)[nH]c(=O)[nH]c1=O [compound 5]
- IC50 ([2]; IC50, mean±SD): 19 ± 1.3 µM

SMILES: Cn1c(O)c(C(=O)NCC(=O)O)c(=O)n(C)c1=O [compound 6]
- IC50 ([2]; IC50, mean±SD): 23 ± 1.2 µM

SMILES: Cn1c(O)c(C(=O)CCc2ccccc2)c(=O)n(C)c1=O [compound 7]
- IC50 ([2]; IC50, mean±SD): 43 ± 1.1 µM

SMILES: Cn1c(O)c(C(=O)CCc2cccs2)c(=O)n(C)c1=O [compound 8]
- IC50 ([2]; IC50, mean±SD): 27 ± 1.4 µM

SMILES: CCn1c(O)c(C(=O)CCC2CCCC2)c(=O)n(CC)c1=O [compound 9]
- IC50 ([2]; IC50, mean±SD): ≥ 1000 µM

SMILES: O=C(CCC1CCCC1)c1c(O)n(C2CCCCC2)c(=O)n(C2CCCCC2)c1=O [compound 10]
- IC50 ([2]; IC50, mean±SD): ≥ 1000 µM

SMILES: Cn1c(O)c(C(=O)CCC2CCCC2)c(=O)n(C)c1=O [compound 11]
- IC50 ([2]; IC50, mean±SD): 67 ± 1.2 µM

SMILES: COc1ccccc1CCC(=O)c1c(O)n(C)c(=O)n(C)c1=O [compound 12]
- IC50 ([2]; IC50, mean±SD): 58 ± 1.4 µM

SMILES: COc1cccc(CCC(=O)c2c(O)n(C)c(=O)n(C)c2=O)c1 [compound 13]
- IC50 ([2]; IC50, mean±SD): 135 ± 1.3 µM

SMILES: Cn1c(O)c(C(=O)CCC2CC2)c(=O)n(C)c1=O [compound 14]
- IC50 ([2]; IC50, mean±SD): 163 ± 1.3 µM

SMILES: Cn1c(O)c(C(=O)CCc2ccsc2)c(=O)n(C)c1=O [compound 15]
- IC50 ([2]; IC50, mean±SD): ≥ 1000 µM

SMILES: CC(Cc1ccsc1)C(=O)c1c(O)n(C)c(=O)n(C)c1=O (centres unmarked) [compound 16]
- IC50 ([2]; IC50, mean±SD): 214 ± 1.4 µM

SMILES: CC(Cc1ccsc1)C(=O)c1c(O)n(C)c(=O)n(C)c1=O (centres unmarked) [compound 17]
- IC50 ([2]; IC50, mean±SD): 22 ± 1.4 µM
